Reference: patent publication US20260070906A1, “IMIDAZO[4,5-C]PYRIDINE COMPOUNDS FOR THE TREATMENT OF CANCER” (Hoffmann-La Roche Inc., priority 2023, published 2026)

What was measured:
human TLR7 = target: T1, human TLR7 (Homo sapiens, UniProt Q9NYK1); test: HEK293-Blue-hTLR7 cells assay (NF-κB SEAP reporter); assay type: cell-based; details: 20 hrs incubation, agonism
T1 construct: host or cells: HEK293-Blue-hTLR7 (HEK293)
T1 sequence (Q9NYK1 27-1049): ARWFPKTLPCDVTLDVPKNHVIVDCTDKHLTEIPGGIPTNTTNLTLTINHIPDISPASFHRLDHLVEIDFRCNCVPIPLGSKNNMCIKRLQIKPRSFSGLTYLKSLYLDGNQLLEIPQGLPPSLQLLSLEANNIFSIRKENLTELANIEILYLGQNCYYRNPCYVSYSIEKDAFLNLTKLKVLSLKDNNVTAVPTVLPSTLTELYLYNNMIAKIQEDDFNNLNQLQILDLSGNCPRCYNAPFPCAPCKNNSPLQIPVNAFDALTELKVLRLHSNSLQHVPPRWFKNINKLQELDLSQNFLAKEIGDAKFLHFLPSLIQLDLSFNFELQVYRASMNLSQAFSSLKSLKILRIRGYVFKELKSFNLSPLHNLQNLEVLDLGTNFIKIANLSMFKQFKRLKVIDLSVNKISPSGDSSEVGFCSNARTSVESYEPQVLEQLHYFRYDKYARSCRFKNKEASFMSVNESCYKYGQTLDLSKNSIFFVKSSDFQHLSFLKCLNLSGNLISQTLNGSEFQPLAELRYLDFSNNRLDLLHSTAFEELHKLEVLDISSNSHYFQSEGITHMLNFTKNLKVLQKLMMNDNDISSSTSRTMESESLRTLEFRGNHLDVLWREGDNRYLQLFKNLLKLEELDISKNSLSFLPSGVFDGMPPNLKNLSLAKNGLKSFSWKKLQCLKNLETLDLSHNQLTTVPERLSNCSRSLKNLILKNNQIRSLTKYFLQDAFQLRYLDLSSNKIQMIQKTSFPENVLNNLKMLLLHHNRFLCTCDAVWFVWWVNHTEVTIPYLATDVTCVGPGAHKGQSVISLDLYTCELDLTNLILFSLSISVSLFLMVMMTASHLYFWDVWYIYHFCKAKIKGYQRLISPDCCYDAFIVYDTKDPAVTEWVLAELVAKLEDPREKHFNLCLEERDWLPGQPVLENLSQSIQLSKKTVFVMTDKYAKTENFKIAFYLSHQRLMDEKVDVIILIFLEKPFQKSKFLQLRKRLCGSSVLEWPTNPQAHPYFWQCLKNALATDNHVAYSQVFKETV
Excerpt: A stable HEK293-Blue-hTLR7 cell line was purchased from InvivoGen (Cat. #: hkb-htlr7, San Diego, California, USA). These cells were designed for studying the stimulation of human TLR7 by monitoring the activation of NF-κB. A SEAP (secreted embryonic alkaline phosphatase) reporter gene was placed under the control of the IFN-β minimal promoter fused to five NF-κB and AP-1-binding sites. The SEAP was induced by activating NF-κB and AP-1 via stimulating HEK-Blue hTLR7 cells with TLR7 ligands. Therefore the reporter expression was regulated by the NF-κB promoter upon stimulation of human TLR7 for 20 hrs. The cell culture supernatant SEAP reporter activity was determined using QUANTI-Blue™ kit (Cat. #: rep-qbl, Invivogen, San Diego, Ca, USA) at a wavelength of 650 nm, a detection medium that turns purple or blue in the presence of alkaline phosphatase.
HEK293-Blue-hTLR7 cells were incubated at a density of 250,000˜450,000 cells/mL in a volume of 180 μL in a 96-well plate in Dulbecco's Modified Eagle's medium (DMEM) containing 4.5 g/L glucose, 100 U/mL penicillin, 100 μg/mL streptomycin, 100 μg/mL Normocin, 1% (V/V) GlutaMAX™, 10% (V/V) heat-inactivated fetal bovine serum for 24 hrs. Then the HEK293-Blue-hTLR-7 cells were incubated with addition of 20 μL test compound in a serial dilution in the presence of final DMSO at 1% and perform incubation under 37° C. in a CO2 incubator for 20 hrs. Then 20 μL of the supernatant from each well was incubated with 180 μL Quanti-blue substrate solution at 37° C. for 1 hours and the absorbance was read at 620-655 nm using a spectrophotometer. The signalling pathway that TLR7 activation leads to downstream NF-κB activation has been widely accepted, and therefore similar reporter assay was also widely used for evaluating TLR7 agonist (Tsuneyasu Kaisho and Takashi Tanaka, Trends in Immunology, Volume 29, Issue 7, July 2008, […]; Hiroaki Hemmi et al, Nature Immunology 3, 196-200 (2002)).

human TLR8 = target: T2, human TLR8 (Homo sapiens, UniProt Q9NR97); test: HEK293-Blue-hTLR8 cells assay (NF-κB SEAP reporter); assay type: cell-based; details: 20 hours incubation, agonism
T2 construct: host or cells: HEK293-Blue-hTLR8 (HEK293)
T2 sequence (Q9NR97 27-1041): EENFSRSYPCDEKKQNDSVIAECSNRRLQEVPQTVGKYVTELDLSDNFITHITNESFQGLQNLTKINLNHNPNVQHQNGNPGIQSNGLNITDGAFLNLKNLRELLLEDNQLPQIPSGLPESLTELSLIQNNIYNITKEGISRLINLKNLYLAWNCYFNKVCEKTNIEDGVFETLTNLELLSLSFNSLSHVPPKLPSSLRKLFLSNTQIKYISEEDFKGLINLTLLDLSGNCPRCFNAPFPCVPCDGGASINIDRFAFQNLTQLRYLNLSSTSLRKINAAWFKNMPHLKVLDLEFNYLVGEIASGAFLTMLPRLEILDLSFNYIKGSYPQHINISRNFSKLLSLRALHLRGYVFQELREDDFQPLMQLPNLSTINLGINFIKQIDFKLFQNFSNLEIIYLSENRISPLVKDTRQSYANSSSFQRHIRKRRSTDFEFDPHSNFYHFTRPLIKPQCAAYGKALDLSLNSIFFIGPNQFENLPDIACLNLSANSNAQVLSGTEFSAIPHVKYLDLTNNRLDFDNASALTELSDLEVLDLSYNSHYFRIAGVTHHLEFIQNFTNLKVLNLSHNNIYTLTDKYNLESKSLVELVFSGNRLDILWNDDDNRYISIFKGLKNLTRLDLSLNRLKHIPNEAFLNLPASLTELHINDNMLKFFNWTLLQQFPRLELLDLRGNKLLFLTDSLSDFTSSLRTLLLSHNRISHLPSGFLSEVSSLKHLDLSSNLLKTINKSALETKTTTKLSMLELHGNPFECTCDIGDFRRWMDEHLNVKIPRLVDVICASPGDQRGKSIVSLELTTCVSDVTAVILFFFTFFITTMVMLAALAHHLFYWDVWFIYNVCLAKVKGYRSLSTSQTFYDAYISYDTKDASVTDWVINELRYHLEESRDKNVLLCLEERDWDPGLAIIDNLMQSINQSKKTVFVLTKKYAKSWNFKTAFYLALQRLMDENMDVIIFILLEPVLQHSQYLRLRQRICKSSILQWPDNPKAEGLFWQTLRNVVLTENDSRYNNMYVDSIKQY
Excerpt: A stable HEK293-Blue-hTLR8 cell line was purchased from InvivoGen (Cat. #: hkb-htlr8, San Diego, California, USA). These cells were designed for studying the stimulation of human TLR8 by monitoring the activation of NF-κB. A SEAP (secreted embryonic alkaline phosphatase) reporter gene was placed under the control of the IFN-β minimal promoter fused to five NF-κB and AP-1-binding sites. The SEAP was induced by activating NF-κB and AP-1 via stimulating HEK-Blue hTLR8 cells with TLR8 ligands. Therefore the reporter expression was regulated by the NF-κB promoter upon stimulation of human TLR8. The cell culture supernatant SEAP reporter activity was determined using QUANTI-Blue™ kit (Cat. #: rep-qbl, Invivogen, San Diego, Ca, USA) at a wavelength of 650 nm, a detection medium that turns purple to blue in the presence of alkaline phosphatase.
HEK293-Blue-hTLR8 cells were incubated at a density of 250,000-450,000 cells/mL in a volume of 180 μL in a 96-well plate in Dulbecco's Modified Eagle's medium (DMEM) containing 4.5 g/L glucose, 100 U/mL penicillin, 100 μg/mL streptomycin, 100 μg/mL Normocin, 1% (V/V) GlutaMAX™, 10% (v/v) heat-inactivated fetal bovine serum for 24 hours. Then the HEK293-Blue-hTLR8 cells were incubated with addition of 20 μL test compound in a serial dilution in the presence of final DMSO at 1% and perform incubation under 37° C. in a CO2 incubator for 20 hours. Then 20 μL of the supernatant from each well was incubated with 180 μL Quanti-blue substrate solution at 37° C. for 1 hours and the absorbance was read at 620-655 nm using a spectrophotometer. The signalling pathway that TLR8 activation leads to downstream NF-κB activation has been widely accepted, and therefore similar reporter assay was also widely used for evaluating TLR8 agonist.

Row | EC50 (human TLR7) [nM] | EC50 (human TLR8) [nM] | Compound | HEK293-hTLR7 EC50 (human TLR7) | HEK293-hTLR8 EC50 (human TLR8)
1 | 25 | 82 | CCOCc1nc2c(N)nc(C)c(Sc3cc(C)c(CN(C)C)cc3O)c2[nH]1 [Example 23, 2-[[4-amino-2-(ethoxymethyl)-6-methyl-1H-imidazo[4,5-c]pyridin-7-yl]sulfanyl]-5-[(dimethylamino)methyl]-4-methyl-phenol] |  | 
2 | 6 | 22 | CCCCc1nc2c(N)nc(C)c(SCCc3ccc(CN(C)C)cc3)c2[nH]1 [Example 15, 2-butyl-7-[2-[4-[(dimethylamino)methyl]phenyl]ethylsulfanyl]-6-methyl-1H-imidazo[4,5-c]pyridin-4-amine] |  | 
3 | 18 | 4 | CCOCc1nc2c(N)nc(C)c(Sc3ccc(CN(C)C)c(O)c3)c2[nH]1 [Example 11, 5-[[4-amino-2-(ethoxymethyl)-6-methyl-1H-imidazo[4,5-c]pyridin-7-yl]sulfanyl]-2-[(dimethylamino)methyl]phenol] |  | 
4 | 33 | 61 | CCOCc1nc2c(N)nc(C)c(Sc3cc(O)c(CN(C)C)cc3C)c2[nH]1 [Example 25, 5-[[4-amino-2-(ethoxymethyl)-6-methyl-1H-imidazo[4,5-c]pyridin-7-yl]sulfanyl]-2-[(dimethylamino)methyl]-4-methyl-phenol] |  | 
5 | 15 | 14 | CCCCc1nc2c(N)nc(C)c(Sc3ccc(CN(C)C)cc3)c2[nH]1 [Example 14, 2-butyl-7-[4-[(dimethylamino)methyl]phenyl]sulfanyl-6-methyl-1H-imidazo[4,5-c]pyridin-4-amine] |  | 
6 | 1 | 20 | CCOCc1nc2c(N)nc(C)c(Sc3c(OC)cc(CN(C)C)cc3OC)c2[nH]1 [Example 4, 7-[4-[(dimethylamino)methyl]-2,6-dimethoxy-phenyl]sulfanyl-2-(ethoxymethyl)-6-methyl-1H-imidazo[4,5-c]pyridin-4-amine] |  | 
7 | 6 | 44 | CCOCc1nc2c(N)nc(C)c(Sc3c(N)cc(CN4CCN(C)CC4)cc3OC)c2[nH]1 [Example 29, 7-[2-amino-6-methoxy-4-[(4-methylpiperazin-1-yl)methyl]phenyl]sulfanyl-2-(ethoxymethyl)-6-methyl-1H-imidazo[4,5-c]pyridin-4-amine] |  | 
8 | 28 | 24 | CCOCc1nc2c(N)nc(C)c([Se]c3ccc(CN(C)C)cc3)c2n1CC(C)(C)O [Example 3, 1-[4-amino-7-[4-[(dimethylamino)methyl]phenyl]selanyl-2-(ethoxymethyl)-6-methyl-imidazo[4,5-c]pyridin-1-yl]-2-methyl-propan-2-ol] |  | 
9 | 310 | 37 | CCCCc1nc2c(N)nnc(N(C)Cc3ccc(CN(C)C)cc3)c2n1C [SAN-43, reference compound] | did not show comparable TLR7 and TLR8 activities | did not show comparable TLR7 and TLR8 activities
10 | 21 | 15 | CCOCc1nc2c(N)nc(C)c(Sc3ccc(CN4CCCC4)cc3N)c2[nH]1 [Example 26, 7-[2-amino-4-(pyrrolidin-1-ylmethyl)phenyl]sulfanyl-2-(ethoxymethyl)-6-methyl-1H-imidazo[4,5-c]pyridin-4-amine] |  | 
11 | 27 | 26 | CCOCc1nc2c(N)nc(C)c(Sc3ccc(CN(C)C)cc3)c2n1C [Example 7, 7-[4-[(dimethylamino)methyl]phenyl]sulfanyl-2-(ethoxymethyl)-1,6-dimethyl-imidazo[4,5-c]pyridin-4-amine] |  | 
12 | 24 | 56 | CCOCc1nc2c(N)nc(C)c(Sc3ccc(CN(CC)CC)cc3O)c2[nH]1 [Example 17, 2-[[4-amino-2-(ethoxymethyl)-6-methyl-1H-imidazo[4,5-c]pyridin-7-yl]sulfanyl]-5-(diethylaminomethyl)phenol] |  | 
13 | 12 | 19 | CCOCc1nc2c(N)nc(C)c(SCCc3ccc(CN(C)C)c(O)c3)c2[nH]1 [Example 13, 5-[2-[[4-amino-2-(ethoxymethyl)-6-methyl-LH-imidazo[4,5-c]pyridin-7-yl]sulfanyl]ethyl]-2-[(dimethylamino)methyl]phenol] |  | 
